Laboratory results: ChEMBL document CHEMBL3046844, “Synthesis of novel 4-thiazolidione derivatives as antibacterial agents against drug-resistant Staphylococcus epidermidis” (2013)
≈ marks a conversion by molar mass, not a printed value.

Tests used:
Type in all cases: functional
[1] = system: Staphylococcus epidermidis; assay: Antibacterial activity against Staphylococcus epidermidis RP62A assessed as growth inhibition after 12 hr by CLSI broth microdilution method
Salmonella = assay: Antibacterial activity against Salmonella assessed as growth inhibition after 12 hr by CLSI broth microdilution method
[2] = system: Staphylococcus epidermidis; assay: Antibacterial activity against methicillin-resistant Staphylococcus epidermidis 8354 clinical isolate assessed as growth inhibition after 12 hr by CLSI broth microdilution method; conditions: Staphylococcus epidermidis, 8354, 12 h
Escherichia coli = assay: Antibacterial activity against Escherichia coli ATCC 25922 assessed as growth inhibition after 12 hr by CLSI broth microdilution method; conditions: ATCC 25922, 12 h
[3] = system: Staphylococcus epidermidis; assay: Antibacterial activity against methicillin-resistant Staphylococcus epidermidis 8311 clinical isolate assessed as growth inhibition after 12 hr by CLSI broth microdilution method; conditions: Staphylococcus epidermidis, 8311, 12 h
Staphylococcus aureus [4] = assay: Antibacterial activity against methicillin-resistant Staphylococcus aureus 8166 clinical isolate assessed as growth inhibition after 12 hr by CLSI broth microdilution method; conditions: Staphylococcus aureus, 8166, 12 h
Staphylococcus aureus [5] = assay: Antibacterial activity against methicillin-resistant Staphylococcus aureus 8282 clinical isolate assessed as growth inhibition after 12 hr by CLSI broth microdilution method; conditions: Staphylococcus aureus, 8282, 12 h

Row | Structure (SMILES) | MIC [1] [µM] | MIC (Salmonella) [µM] | MIC [2] [µM] | MIC (Escherichia coli) [µM] | MIC [3] [µM] | MIC (Staphylococcus aureus [4]) [µM] | MIC (Staphylococcus aureus [5]) [µM]
1 | O=C(O)COc1ccc(/C=C2/S/C(=N\c3ccccc3Cl)N(c3ccccc3Cl)C2=O)cc1 | 3.13 (≈ 1.56 µg/mL) | > 200 | 3.13 (≈ 1.56 µg/mL) | > 200 | 3.13 (≈ 1.56 µg/mL) | 12.5 (≈ 6.24 µg/mL) | 3.13 (≈ 1.56 µg/mL)
2 | O=C(O)COc1ccc(/C=C2/S/C(=N\c3ccc(F)cc3)N(c3ccc(F)cc3)C2=O)cc1 | 25 (≈ 11.7 µg/mL) | > 200 |  | > 200 |  |  | 
3 | O=C(O)COc1ccc(/C=C2/S/C(=N\c3ccc(Br)cc3)N(c3ccc(Br)cc3)C2=O)cc1 | 3.13 (≈ 1.84 µg/mL) | > 200 | 3.13 (≈ 1.84 µg/mL) | > 200 | 3.13 (≈ 1.84 µg/mL) | 6.25 (≈ 3.68 µg/mL) | 3.13 (≈ 1.84 µg/mL)
4 | O=C(O)COc1ccc(/C=C2/S/C(=N\c3cccc(Cl)c3)N(c3cccc(Cl)c3)C2=O)cc1 | 3.13 (≈ 1.56 µg/mL) | > 200 | 3.13 (≈ 1.56 µg/mL) | > 200 | 3.13 (≈ 1.56 µg/mL) | 12.5 (≈ 6.24 µg/mL) | 3.13 (≈ 1.56 µg/mL)
5 | O=C(O)COc1ccc(/C=C2/S/C(=N\c3ccc(Cl)cc3)N(c3ccc(Cl)cc3)C2=O)cc1 | 1.57 (≈ 0.784 µg/mL) | > 200 | 1.57 (≈ 0.784 µg/mL) | > 200 | 1.57 (≈ 0.784 µg/mL) | 6.25 (≈ 3.12 µg/mL) | 3.13 (≈ 1.56 µg/mL)
6 | COc1cc(/C=C2/S/C(=N\c3ccc(Cl)cc3)N(c3ccc(Cl)cc3)C2=O)ccc1OCC(=O)O | 6.25 (≈ 3.31 µg/mL) | > 200 |  | > 200 |  |  | 
7 | O=C(O)COc1cccc(/C=C2/S/C(=N\c3ccc(Cl)cc3)N(c3ccc(Cl)cc3)C2=O)c1 | 25 (≈ 12.5 µg/mL) | > 200 |  | > 200 |  |  | 
8 | CCc1ccccc1/N=C1\S/C(=C/c2ccc(OCC(=O)O)c(OC)c2)C(=O)N1c1ccccc1CC | 50 (≈ 25.8 µg/mL) | > 200 |  | > 200 |  |  | 
9 | O=C(O)c1ccc(/C=C2/S/C(=N\c3ccccc3)N(c3ccccc3)C2=O)cc1 | 50 (≈ 20 µg/mL) | > 200 |  | > 200 |  |  | 
10 | O=C(O)c1ccc(/C=C2/S/C(=N\c3ccc(F)cc3)N(c3ccc(F)cc3)C2=O)cc1 | 25 (≈ 10.9 µg/mL) | > 200 |  | > 200 |  |  | 
11 | O=C(O)c1ccc(/C=C2/S/C(=N\c3ccc(Br)cc3)N(c3ccc(Br)cc3)C2=O)cc1 | 12.5 (≈ 6.98 µg/mL) | > 200 |  | > 200 |  |  | 
12 | O=C(O)c1ccc(/C=C2/S/C(=N\c3ccc(Cl)cc3)N(c3ccc(Cl)cc3)C2=O)cc1 | 3.13 (≈ 1.47 µg/mL) | > 200 | 3.13 (≈ 1.47 µg/mL) | > 200 | 3.13 (≈ 1.47 µg/mL) | 12.5 (≈ 5.87 µg/mL) | 3.13 (≈ 1.47 µg/mL)
13 | O=C(O)c1ccc(COc2ccc(/C=C3/S/C(=N\c4ccc(Cl)cc4)N(c4ccc(Cl)cc4)C3=O)cc2)cc1 | > 200 | > 200 |  | > 200 |  |  | 
14 | O=C(O)COc1ccc(/C=C2/S/C(=N\c3ccccc3)N(c3ccccc3)C2=O)cc1 | 100 (≈ 43 µg/mL) | > 200 |  | > 200 |  |  | 
15 | CC1(C)S[C@@H]2[C@H](NC(=O)[C@H](N)c3ccccc3)C(=O)N2[C@H]1C(=O)O [AMPICILLIN] | 11.5 (≈ 4.02 µg/mL) | > 200 |  | > 200 |  |  | 
16 | C[C@H]1COc2c(N3CCN(C)CC3)c(F)cc3c(=O)c(C(=O)O)cn1c23 [LEVOFLOXACIN] |  |  | 22.1 (≈ 7.99 µg/mL) |  | 22.1 (≈ 7.99 µg/mL) | 22.1 (≈ 7.99 µg/mL) | 22.1 (≈ 7.99 µg/mL)
17 | COc1cccc(OC)c1C(=O)N[C@@H]1C(=O)N2[C@@H]1SC(C)(C)[C@@H]2C(=O)O [METHICILLIN] | 5.26 (≈ 2 µg/mL) | > 200 | 65.7 (≈ 25 µg/mL) | > 200 | 65.7 (≈ 25 µg/mL) | 65.7 (≈ 25 µg/mL) | 65.7 (≈ 25 µg/mL)
